# Columns and labels:
# P. falciparum [1] = test: Combination assays, isobologram analysis (FIC50 pairs); assay type: cell-based, Plasmodium falciparum; conditions: isobologram, IC50 equivalent ratios 1:4, 2:3, 1:1, 3:2, 4:1
# Protocol: Combinations of anti-malarial candidates with artesunate, an artemisinin derivative, were tested in fixed molar ratios based on the individual IC50 values that were previously determined by the SYBR Green I assay. Traditionally, a line (isobole) of additivity is used to distinguish between additive, synergic, and antagonistic interaction profiles. […] Thus, a systematic consideration of additivity ranges was included in the isobologram analysis, as previously described by Grabovsky and Tallarida. Concentration-response curves of individual compounds were used in the calculation of each pair’s additivity range (area within the upper and lower limits in Figs. 4 and 5). Fractional inhibitory concentration (FIC50) pairs plotted as points inside the additivity range indicate the expected sum of each compound effect, while points above and below the range indicate antagonistic and synergic interactions, respectively. The selected inhibitors were combined with artesunate in the IC50 equivalent ratios of 1:4, 2:3, 1:1, 3:2 and 4:1 for the construction of the isobolograms.
# P. falciparum [2] = test: as above; assay type: cell-based, Plasmodium falciparum
# P. falciparum [3] = conditions: cited from earlier work
compound,measurement,setting,value
"O=C1C(O)=C([C@H]2CC[C@H](c3ccc(Cl)cc3)CC2)C(=O)c2ccccc21 [atovaquone, reference compound]",Combination profile with artesunate,P. falciparum [1],antagonistic
same,Combination profile with proguanil,P. falciparum [2],synergic
same,Speed of action (literature),P. falciparum [3],slow

# Reference: article PMC6938011, “Antiplasmodial profile of selected compounds from Malaria Box: in vitro evaluation, speed of action and drug combination studies” (Malaria Journal, 2019)
